Experimental data from patent US8354441B2, “Oxazoline derivatives” (Hoffmann-La Roche Inc., priority 2009, dated 2013).

What was measured:
[1] = target: T1, rat TAAR1 (Rattus norvegicus, UniProt Q923Y9); experiment: TAAR1 radioligand binding with [3H]-rac-2-(1,2,3,4-tetrahydro-1-naphthyl)-2-imidazoline, membranes of stably transfected HEK293 cells; settings: second value of the cell, read-out: Ki (μM) mouse/rat: rat
T1 construct: expressed in transfected cells; host or cells: HEK293 (ATCC # CRL-1573), stably transfected with pIRESneo2 expression plasmid
T1 sequence (Q923Y9 whole entry): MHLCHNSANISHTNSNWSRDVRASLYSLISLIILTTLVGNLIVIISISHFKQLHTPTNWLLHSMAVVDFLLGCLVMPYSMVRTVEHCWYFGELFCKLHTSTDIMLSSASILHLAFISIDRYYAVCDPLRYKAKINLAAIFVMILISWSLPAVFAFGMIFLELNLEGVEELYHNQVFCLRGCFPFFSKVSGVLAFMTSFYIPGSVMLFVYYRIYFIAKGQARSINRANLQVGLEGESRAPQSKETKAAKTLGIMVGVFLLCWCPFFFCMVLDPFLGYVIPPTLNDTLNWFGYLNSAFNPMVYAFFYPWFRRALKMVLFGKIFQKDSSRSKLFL
Experimental: (§1) For the construction of expression plasmids the coding sequences of human, rat and mouse TAAR 1 were amplified from genomic DNA essentially as described by Lindemann et al.. The Expand High Fidelity PCR System (Roche Diagnostics) was used with 1.5 mM Mg^2+ and purified PCR products were cloned into pCR2.1-TOPO cloning vector (Invitrogen) following the instructions of the manufacturer. PCR products were subcloned into the pIRESneo2 vector (BD Clontech, Palo Alto, Calif.), and expression vectors were sequence verified before introduction in cell lines.
(§2) HEK293 cells (ATCC # CRL-1573) were cultured essentially as described by Lindemann et al. (2005). For the generation of stably transfected cell lines HEK293 cells were transfected with the pIRESneo2 expression plasmids containing the TAAR coding sequences (described above) with Lipofectamine 2000 (Invitrogen) according to the instructions of the manufacturer, and 24 hrs post transfection the culture medium was supplemented with 1 mg/ml G418 (Sigma, Buchs, Switzerland). After a culture period of about 10 d clones were isolated, expanded and tested for responsiveness to trace amines (all compounds purchased from Sigma) with the cAMP Biotrak Enzyme immunoassay (EIA) System (Amersham) following the non-acetylation EIA procedure provided by the manufacturer.
(§3) Cells at confluence were rinsed with ice-cold phosphate buffered saline without Ca^2+ and Mg^2+ containing 10 mM EDTA and pelleted by centrifugation at 1000 rpm for 5 min at 4° C. The pellet was then washed twice with ice-cold phosphate buffered saline and the cell pellet was frozen immediately by immersion in liquid nitrogen and stored until use at −80° C. The cell pellet was then suspended in 20 ml HEPES-NaOH (20 mM), pH 7.4 containing 10 mM EDTA, and homogenized with a Polytron (PT 3000, Kinematica) at 10,000 rpm for 10 s. The homogenate was centrifuged at 48,000×g for 30 min at 4° C. and the pellet resuspended in 20 ml HEPES-NaOH (20 mM), pH 7.4 containing 0.1 mM EDTA (buffer A), and homogenized with a Polytron at 10,000 rpm for 10 s. The homogenate was then centrifuged at 48,000×g for 30 min at 4° C. and the pellet resuspended in 20 ml buffer A, and homogenized with a Polytron at 10,000 rpm for 10 s. Protein concentration was determined by the method of Pierce (Rockford, Ill.). The homogenate was then centrifuged at 48,000×g for 10 min at 4° C., resuspended in HEPES-NaOH (20 mM), pH 7.0 including MgCl2 (10 mM) and […] homogenized with a Polytron at 10,000 rpm for 10 s.
(§4) The binding assay was performed at 4° C. in a final volume of 1 ml, and with an incubation time of 30 min. The radioligand [^3H]-rac-2-(1,2,3,4-tetrahydro-1-naphthyl)-2-imidazoline was used at a concentration equal to the calculated Kd value of 60 nM to give a bound at around 0.1% of the total added radioligand concentration, and a specific binding which represented approximately 70-80% of the total binding. Non-specific binding was defined as the amount of [^3H]-rac-2-(1,2,3,4-tetrahydro-1-naphthyl)-2-imidazoline bound in the presence of the appropriate unlabelled ligand (10 μM). Competing ligands were tested in a wide range of concentrations (10 pM-30 μM). […] Each experiment was performed in duplicate. All incubations were terminated by rapid filtration through UniFilter-96 plates (Packard Instrument Company) and glass filter GF/C, pre-soaked for at least 2 h in polyethylenimine 0.3%, and using a Filtermate 96 Cell Harvester (Packard Instrument Company). The tubes and filters were then washed 3 times with 1 ml aliquots of cold buffer B. Filters were not dried and soaked in Ultima gold (45 μl/well, Packard Instrument Company) and bound radioactivity was counted by a TopCount Microplate Scintillation Counter (Packard Instrument Company).

[2] = target: T2, mouse TAAR1 (Mus musculus, UniProt Q923Y8); experiment: as above; settings: first value of the cell, read-out: Ki (μM) mouse/rat: mouse
T2 construct: expressed in transfected cells; host or cells: HEK293 (ATCC # CRL-1573), stably transfected with pIRESneo2 expression plasmid
T2 sequence (Q923Y8 whole entry): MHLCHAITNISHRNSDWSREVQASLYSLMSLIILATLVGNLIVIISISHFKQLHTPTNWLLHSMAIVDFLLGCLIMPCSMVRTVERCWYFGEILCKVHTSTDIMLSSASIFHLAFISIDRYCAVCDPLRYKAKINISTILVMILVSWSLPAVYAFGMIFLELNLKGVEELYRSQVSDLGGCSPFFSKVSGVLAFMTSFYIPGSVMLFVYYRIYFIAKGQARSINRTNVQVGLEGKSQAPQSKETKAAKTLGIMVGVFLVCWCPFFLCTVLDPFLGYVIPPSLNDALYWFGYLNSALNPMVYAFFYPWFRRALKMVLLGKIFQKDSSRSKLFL
Experimental: as §1, §2, §3, §4

SMILES | Ki [1] [µM] | Ki [2] [µM]
NC1=N[C@@H](CCc2ccc(NC(=O)c3ccc4cnccc4n3)cc2)CO1 [Example 104, [1,6]Naphthyridine-2-carboxylic acid {4-[2-((S)-2-amino-4,5-dihydro-oxazol-4-yl)-ethyl]-phenyl}-amide] | 0.0014 | 0.0034
NC1=N[C@@H](CCc2ccc(NC(=O)Nc3ccc(Cl)cn3)cc2)CO1 [Example 35, 1-{4-[2-((S)-2-Amino-4,5-dihydro-oxazol-4-yl)-ethyl]-phenyl}-3-(5-chloro-pyridin-2-yl)-urea] | 0.0003 | 0.0001
NC1=N[C@@H](CCc2ccc(NS(=O)(=O)c3ccc(Cl)c(Cl)c3)cc2)CO1 [Example 76, N-{4-[2-((S)-2-Amino-4,5-dihydro-oxazol-4-yl)-ethyl]-phenyl}-3,4-dichloro-benzenesulfonamide] | 0.0009 | 0.009
NC1=N[C@@H](CCc2ccc(NC(=O)c3ccnc(-c4ccncc4)c3)cc2)CO1 [Example 199, (S)-N-(4-(2-(2-Amino-4,5-dihydrooxazol-4-yl)ethyl)phenyl)-2,4′-bipyridine-4-carboxamide] | 0.0037 | 0.0027
NC1=N[C@@H](CCc2ccc(NC(=O)c3cnc(C(F)(F)F)nc3C3CC3)cc2)CO1 [Example 209, (S)-N-(4-(2-(2-Amino-4,5-dihydrooxazol-4-yl)ethyl)phenyl)-4-cyclopropyl-2-(trifluoromethyl)pyrimidine-5-carboxamide] | 0.0035 | 0.0013
NC1=N[C@@H](CCCc2ccc(NC(=O)c3ccc(Cl)cc3)cc2)CO1 [Example 8, N-{4-[3-((S)-2-Amino-4,5-dihydro-oxazol-4-yl)-propyl]-phenyl}-4-chloro-benzamide] | 0.0001 | 0.0034
NC1=N[C@@H](CCc2ccc(NC(=O)c3nc4ccccc4[nH]3)cc2)CO1 [Example 86, 1H-Benzoimidazole-2-carboxylic acid {4-[2-((S)-2-amino-4,5-dihydro-oxazol-4-yl)-ethyl]-phenyl}-amide] | 0.0006 | 0.0022
NC1=N[C@@H](CCc2ccc(NC(=O)Cc3ccc(F)cc3)cc2)CO1 [Example 69, N-{4-[2-((S)-2-Amino-4,5-dihydro-oxazol-4-yl)-ethyl]-phenyl}-2-(4-fluoro-phenyl)-acetamide] | 0.0009 | 0.003
Cc1ccc(C(=O)Nc2ccc(CC[C@H]3COC(N)=N3)cc2)nc1 [Example 171, (S)-N-(4-(2-(2-Amino-4,5-dihydrooxazol-4-yl)ethyl)phenyl)-5-methylpicolinamide] | 0.0011 | 0.0008
CCc1cncc(C(=O)Nc2ccc(CC[C@H]3COC(N)=N3)cc2)n1 [Example 211, (S)-N-(4-(2-(2-Amino-4,5-dihydrooxazol-4-yl)ethyl)phenyl)-6-ethylpyrazine-2-carboxamide] | 0.0024 | 0.0023
NC1=N[C@@H](CCc2ccc(N3Cc4ccc(Cl)cc4C3=O)cc2)CO1 [Example 186, 2-{4-[2-((S)-2-Amino-4,5-dihydro-oxazol-4-yl)-ethyl]-phenyl}-6-chloro-2,3-dihydro-isoindol-1-one] | 0.001 | 0.0029
Cc1ccc(C(=O)Nc2ccc(CC[C@H]3COC(N)=N3)cc2)s1 [Example 201, (S)-N-(4-(2-(2-Amino-4,5-dihydrooxazol-4-yl)ethyl)phenyl)-5-methylthiophene-2-carboxamide] | 0.0007 | 0.0005
NC1=N[C@@H](CCc2ccc(NC(=O)C3CCC(C(F)(F)F)CC3)cc2)CO1 (stereo partly drawn) [Example 79, 4-Trifluoromethyl-cyclohexanecarboxylic acid {4-[2-((S)-2-amino-4,5-dihydro-oxazol-4-yl)-ethyl]-phenyl}-amide] | 0.0051 | 0.0057
C#Cc1ccc(NC(=O)c2ccc(CC[C@H]3COC(N)=N3)cc2)cc1 [Example 145, (S)-4-(2-(2-amino-4,5-dihydrooxazol-4-yl)ethyl)-N-(4-ethynylphenyl)benzamide] | 0.0001 | 0.0018
NC1=N[C@@H](CCc2ccc(NC(=O)c3cnc(N4CCC(F)(F)CC4)cn3)cc2)CO1 [Example 164] | 0.0027 | 0.0018
Cc1cc(Cl)cc(C(=O)Nc2ccc(CC[C@H]3COC(N)=N3)cc2)n1 [Example 156, (S)-N-(4-(2-(2-Amino-4,5-dihydrooxazol-4-yl)ethyl)phenyl)-4-chloro-6-methylpicolinamide] | 0.0063 | 0.0006
NC1=N[C@@H](CCc2ccc(NC(=O)c3ccc(C(F)(F)F)cn3)cc2)CO1 [Example 54, 5-Trifluoromethyl-pyridine-2-carboxylic acid {4-[2-((S)-2-amino-4,5-dihydro-oxazol-4-yl)-ethyl]-phenyl}-amide] | 0.0019 | 0.0008
Cc1cc(C(=O)Nc2ccc(CC[C@H]3COC(N)=N3)cc2)sc1C [Example 202, (S)-N-(4-(2-(2-Amino-4,5-dihydrooxazol-4-yl)ethyl)phenyl)-4,5-dimethylthiophene-2-carboxamide] | 0.0004 | 0.0007
NC1=N[C@@H](CCc2ccc(NC(=O)Oc3ccc(F)cc3)cc2)CO1 [Example 148, {4-[2-((S)-2-Amino-4,5-dihydro-oxazol-4-yl)-ethyl]-phenyl}-carbamic acid 4-fluoro-phenyl ester] | 0.0006 | 0.0005
CO[C@H](C(=O)Nc1ccc(CC[C@H]2COC(N)=N2)cc1)c1ccccc1 [Example 74, (S)-N-{4-[2-((S)-2-Amino-4,5-dihydro-oxazol-4-yl)-ethyl]-phenyl}-2-methoxy-2-phenyl-acetamide] | 0.0073 | 0.009
COCc1ccc(C(=O)Nc2ccc(CC[C@H]3COC(N)=N3)cc2)cc1 [Example 63, N-{4-[2-((S)-2-Amino-4,5-dihydro-oxazol-4-yl)-ethyl]-phenyl}-4-methoxymethyl-benzamide] | 0.0013 | 0.0026
N#Cc1ccc(C(=O)Nc2ccc(CC[C@H]3COC(N)=N3)cc2)cc1 [Example 59, N-{4-[2-((S)-2-Amino-4,5-dihydro-oxazol-4-yl)-ethyl]-phenyl}-4-cyano-benzamide] | 0.0022 | 0.0022
COc1cncc(C(=O)Nc2ccc(CC[C@H]3COC(N)=N3)cc2)n1 [Example 128, (S)-N-(4-(2-(2-Amino-4,5-dihydrooxazol-4-yl)ethyl)phenyl)-6-methoxypyrazine-2-carboxamide] | 0.0054 | 0.0079
NC1=N[C@@H](CCc2ccc(NC(=O)Nc3ccc(F)cc3)cc2)CO1 [Example 94, 1-{4-[2-((S)-2-Amino-4,5-dihydro-oxazol-4-yl)-ethyl]-phenyl}-3-(4-fluoro-phenyl)-urea] | 0.0003 | 0.0003
CCc1nc(OC)cc(C(=O)Nc2ccc(CC[C@H]3COC(N)=N3)cc2)n1 [Example 203, 2-Ethyl-6-methoxy-pyrimidine-4-carboxylic acid {4-[2-((S)-2-amino-4,5-dihydro-oxazol-4-yl)-ethyl]-phenyl}-amide] | 0.0014 | 0.0008
COc1ccc(C(=O)Nc2ccc(CC[C@H]3COC(N)=N3)cc2)cc1 [Example 71, N-{4-[2-((S)-2-Amino-4,5-dihydro-oxazol-4-yl)-ethyl]-phenyl}-4-methoxy-benzamide] | 0.0005 | 0.0009
NC1=N[C@@H](CCc2ccc(NC(=O)CCC3CC3)cc2)CO1 [Example 170, (S)-N-(4-(2-(2-Amino-4,5-dihydrooxazol-4-yl)ethyl)phenyl)-3-cyclopropylpropanamide] | 0.0018 | 0.0074
